From PMC7064328 (Environmental Health Perspectives, 2020)

What was measured:
placenta = experiment: Placental histopathology; type: in vivo, mouse (CD-1)
Procedure: Dam livers, kidneys, and placentas were trimmed and embedded by the NIEHS Mouse Embryo Phenotyping Core. Tissues collected at necropsy were fixed in 4% PFA for 72 h and paraffin embedded, and 5-μm sections were prepared and stained with hematoxylin and eosin (H&E). Pathology was evaluated and a pathology review conducted by S.A.E. Diplomate American College of Veterinary Pathologists (DACVP). Pathology reviews were conducted as an informed approach analysis [e.g., nonblinded analysis; see Sills et al. ([2019])]. Select tissue slides were scanned using the AT2 Scanner (Aperio). Images were then captured for publication using the ImageScope software; version 12.3.0.5056 (Aperio). Serum and urine obtained from dams in Block 2 were analyzed using the AU480 clinical chemistry analyzer (Beckman Coulter Inc.). Reagents and calibration standards used to measure alkaline phosphatase (ALP), alanine aminotransferase (ALT), aspartate aminotransferase (AST), blood urea nitrogen (BUN), serum creatinine, urine creatinine, glucose (Glu), total protein (TP), triglyceride (Trig), high-density lipoprotein (HDL), cholesterol (Chol), and albumin (ALB) were purchased from Beckman Coulter Inc. Reagents for sorbitol dehydrogenase (SDH), total bile acid (TBA), and micro-TP were purchased from Sekisui Diagnostics. The reagent used to measure low-density lipoprotein (LDL) was purchased form Diazyme Laboratories.
Histopathological lesions of evaluated placenta were evaluated using two statistical approaches. The first approach assumed the absence of litter effects and considered each placenta evaluated within a treatment group to be a totally independent observation, regardless of its litter of origin. […] The second approach considered the litter as the biological unit and compared the relative incidence of placental lesions [e.g., percent within normal limits (WNL)] to adjust for differences in the total number of observations across litters within and between treatment groups. […] Both approaches were subjected to simultaneous tests for general linear hypotheses to correct for multiple comparisons using Tukey contrasts in the package multcomp ([Hothorn et al. 2009]).

maternal liver = experiment: Transmission electron microscopy of dam liver; type: in vivo, mouse (CD-1); conditions: E17.5
Description: Block 2 dam liver portions stored in McDowell and Trump’s fixative ([McDowell and Trump 1976]) were processed using a Leica EM TP processor. Briefly, samples were rinsed with buffer, postfixed in 1% osmium tetroxide in 0.1-M phosphate buffer, rinsed in distilled water, dehydrated, and embedded in Ply/Bed® 812 (Polysciences, Inc.) epoxide resin. Blocks were trimmed, and semithin sections ( ∼0.5μm ) were stained with 1% toluidine blue (Poly-scientific R&D Corp.) O in 1% sodium borate to ascertain areas of interest. Ultrathin sections ( […] ) were cut from areas of interest and placed on 200-mesh copper grids and stained with uranyl acetate and lead citrate, and digital images were captured using an Orius® SC1000 side mount camera (Gatan) attached to a Techani T12 transmission electron microscope (TEM) (FEI Company). In general, peroxisomes were smaller than mitochondria and round with a dark, electron-dense, granular matrix and surrounded by a single membrane. […] Samples were analyzed by R.D.K., Ph.D.

O=C(O)C(F)(F)C(F)(F)C(F)(F)C(F)(F)C(F)(F)C(F)(F)C(F)(F)F [PFOA, Perfluorooctanoic acid]
Early fibrin clot: % (placenta; E11.5, 1 mg/kg/d): 0%
Early fibrin clot: No. (placenta; E11.5, 1 mg/kg/d): 0
Labyrinth atrophy: % (placenta; E11.5, 1 mg/kg/d): 0%
Labyrinth atrophy: No. (placenta; E11.5, 1 mg/kg/d): 0
Labyrinth congestion: % (placenta; E11.5, 1 mg/kg/d): 0%
Labyrinth congestion: No. (placenta; E11.5, 1 mg/kg/d): 0
Labyrinth necrosis: % (placenta; E11.5, 1 mg/kg/d): 0%
Labyrinth necrosis: No. (placenta; E11.5, 1 mg/kg/d): 0
Mean WNL per litter (%) (placenta; E11.5, 1 mg/kg/d): 98.0%
Mean WNL ± SD per litter (placenta; E11.5, 1 mg/kg/d): 6.4 ± 1.9
Mean abnormal per litter (%) (placenta; E11.5, 1 mg/kg/d): 2.0%
Mean abnormal ± SD per litter (placenta; E11.5, 1 mg/kg/d): 0.2 ± 0.4
Other placental lesions: % (placenta; E11.5, 1 mg/kg/d): 3.0%
Other placental lesions: No. (placenta; E11.5, 1 mg/kg/d): 1
Placental nodule: % (placenta; E11.5, 1 mg/kg/d): 0%
Placental nodule: No. (placenta; E11.5, 1 mg/kg/d): 0
Placentas WNL: % (placenta; E11.5, 1 mg/kg/d): 97.0%
Placentas WNL: No. (placenta; E11.5, 1 mg/kg/d): 32
Placentas abnormal: % (placenta; E11.5, 1 mg/kg/d): 3.0%
Placentas abnormal: No. (placenta; E11.5, 1 mg/kg/d): 4
Early fibrin clot: % (placenta; E11.5, 5 mg/kg/d): 0%
Early fibrin clot: No. (placenta; E11.5, 5 mg/kg/d): 0
Labyrinth atrophy: % (placenta; E11.5, 5 mg/kg/d): 8.3%
Labyrinth atrophy: No. (placenta; E11.5, 5 mg/kg/d): 3
Labyrinth congestion: % (placenta; E11.5, 5 mg/kg/d): 0%
Labyrinth congestion: No. (placenta; E11.5, 5 mg/kg/d): 0
Labyrinth necrosis: % (placenta; E11.5, 5 mg/kg/d): 2.7%
Labyrinth necrosis: No. (placenta; E11.5, 5 mg/kg/d): 1
Mean WNL per litter (%) (placenta; E11.5, 5 mg/kg/d): 88.3%
Mean WNL ± SD per litter (placenta; E11.5, 5 mg/kg/d): 6.4 ± 1.7
Mean abnormal per litter (%) (placenta; E11.5, 5 mg/kg/d): 11.7%
Mean abnormal ± SD per litter (placenta; E11.5, 5 mg/kg/d): 1.0 ± 1.4
Other placental lesions: % (placenta; E11.5, 5 mg/kg/d): 0%
Other placental lesions: No. (placenta; E11.5, 5 mg/kg/d): 0
Placental nodule: % (placenta; E11.5, 5 mg/kg/d): 0%
Placental nodule: No. (placenta; E11.5, 5 mg/kg/d): 0
Placentas WNL: % (placenta; E11.5, 5 mg/kg/d): 88.9%
Placentas WNL: No. (placenta; E11.5, 5 mg/kg/d): 32
Placentas abnormal: % (placenta; E11.5, 5 mg/kg/d): 11.1%
Placentas abnormal: No. (placenta; E11.5, 5 mg/kg/d): 4
Early fibrin clot: % (placenta; E17.5, 1 mg/kg/d): 0%
Early fibrin clot: No. (placenta; E17.5, 1 mg/kg/d): 0
Labyrinth atrophy: % (placenta; E17.5, 1 mg/kg/d): 0%
Labyrinth atrophy: No. (placenta; E17.5, 1 mg/kg/d): 0
Labyrinth congestion: % (placenta; E17.5, 1 mg/kg/d): 0%
Labyrinth congestion: No. (placenta; E17.5, 1 mg/kg/d): 0
Labyrinth necrosis: % (placenta; E17.5, 1 mg/kg/d): 3.1%
Labyrinth necrosis: No. (placenta; E17.5, 1 mg/kg/d): 1
Mean WNL per litter (%) (placenta; E17.5, 1 mg/kg/d): 91.4%
Mean WNL ± SD per litter (placenta; E17.5, 1 mg/kg/d): 5.8 ± 1.3
Mean abnormal per litter (%) (placenta; E17.5, 1 mg/kg/d): 8.6%
Mean abnormal ± SD per litter (placenta; E17.5, 1 mg/kg/d): 0.6 ± 0.9
Other placental lesions: % (placenta; E17.5, 1 mg/kg/d): 0%
Other placental lesions: No. (placenta; E17.5, 1 mg/kg/d): 0
Placental nodule: % (placenta; E17.5, 1 mg/kg/d): 6.3%
Placental nodule: No. (placenta; E17.5, 1 mg/kg/d): 2
Placentas WNL: % (placenta; E17.5, 1 mg/kg/d): 90.6%
Placentas WNL: No. (placenta; E17.5, 1 mg/kg/d): 29
Placentas abnormal: % (placenta; E17.5, 1 mg/kg/d): 9.4%
Placentas abnormal: No. (placenta; E17.5, 1 mg/kg/d): 3
Early fibrin clot: % (placenta; E17.5, 5 mg/kg/d): 2.5%
Early fibrin clot: No. (placenta; E17.5, 5 mg/kg/d): 1
Labyrinth atrophy: % (placenta; E17.5, 5 mg/kg/d): 7.5%
Labyrinth atrophy: No. (placenta; E17.5, 5 mg/kg/d): 3
Labyrinth congestion: % (placenta; E17.5, 5 mg/kg/d): 57.5%
Labyrinth congestion: No. (placenta; E17.5, 5 mg/kg/d): 23
Labyrinth necrosis: % (placenta; E17.5, 5 mg/kg/d): 0%
Labyrinth necrosis: No. (placenta; E17.5, 5 mg/kg/d): 0
Mean WNL per litter (%) (placenta; E17.5, 5 mg/kg/d): 38.1%
Mean WNL ± SD per litter (placenta; E17.5, 5 mg/kg/d): 2.2 ± 2.7
Mean abnormal per litter (%) (placenta; E17.5, 5 mg/kg/d): 61.9%
Mean abnormal ± SD per litter (placenta; E17.5, 5 mg/kg/d): 4.5 ± 3.8
Other placental lesions: % (placenta; E17.5, 5 mg/kg/d): 0%
Other placental lesions: No. (placenta; E17.5, 5 mg/kg/d): 0
Placental nodule: % (placenta; E17.5, 5 mg/kg/d): 0%
Placental nodule: No. (placenta; E17.5, 5 mg/kg/d): 0
Placentas WNL: % (placenta; E17.5, 5 mg/kg/d): 32.5%
Placentas WNL: No. (placenta; E17.5, 5 mg/kg/d): 13
Placentas abnormal: % (placenta; E17.5, 5 mg/kg/d): 67.5%
Placentas abnormal: No. (placenta; E17.5, 5 mg/kg/d): 27
Lowest dose tested resulting in adverse placental pathology (placenta; this study): 5 mg/kg/d
Liver ultrastructure (TEM) (maternal liver; 1 mg/kg/d): enlarged hepatocytes with increased cytoplasmic organelles consistent with mitochondria and peroxisomes, evenly dispersed glycogen, and small vacuoles in the centrilobular regions
Liver ultrastructure (TEM) (maternal liver; 5 mg/kg/d): abnormal ultrastructure
